Among the data in PubChem BioAssay AID449764 (Southern Research Specialized Biocontainment Screening …, 2010) are IC50 and IC90 values, retold here.

pIC50: −log10 of the molar value. Some results are limits rather than exact numbers.

One may read the pIC50 as the negative decadic logarithm of the IC50, by convention in mol/L. What is called IC90 is the point of the concentration-response curve where the effect stands at 90%.

The assay concerns Mycobacterium tuberculosis H37Rv growth inhibition, no glycerol. The assay is described as follows: Confirmatory growth inhibition assay, Mycobacterium tuberculosis H37Rv, absence of glycerol (AID 449764).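 On all read-outs here: growth read after 7 days of incubation.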 Conditions: for IC90: measured here: IC90 growth inhibition.

Consider `N#Cc1ccc(OCC(O)CN2CCN(c3ncc(C(F)(F)F)cc3Cl)CC2)cc1` (centres undefined), for which the pIC50 is 4.81 and the IC90 was found to be 24.3 µM.

As to `CCc1cccc2c(=O)c(C(=O)N3CCOCC3)c[nH]c12`, the pIC50 was 4.81 and the 90% effect concentration (IC90) was 22.9 µM.

For `COC(=O)c1cc(-c2cccc(OC)c2)on1`, the pIC50 was 4.98 and the IC90 is greater than 100 µM.

Turning to `O=C(c1ccccc1)C1CN(Cc2ccccc2)CCC1(O)c1ccccc1` (centres undefined), the pIC50 is 4.79 and the IC90 was found to be 21.8 µM.

`S=C(Nc1ccc(Cl)cc1)Nc1cccc2cnccc12`: the pIC50 is 5.25 and the IC90 was 5.92 µM.

Regarding `C/C(Cl)=C\COc1cc(C)nc2c(Br)cccc12`, the pIC50 was 4.67 and the IC90 worked out at 24.4 µM.

Take `N#CCCN(C(=O)COC(=O)CCc1c[nH]c2ccccc12)c1ccc(F)cc1`: the pIC50 is 4.46 and the IC90 amounted to 68.5 µM.

With `CCOC(=O)CSc1ncnc2c1sc1nc(N3CCOCC3)c3c(c12)CCCC3`, the pIC50 was 4.60 and the IC90 was found to be 27.9 µM.

On to `Cc1ccc(C(=O)OCc2nnc(-c3ccccc3)o2)s1`, for which the negative logarithm of the IC50 (pIC50) is 4.69 and the concentration for an effect of 90% (IC90) amounted to 32.2 µM.

As for `Clc1ccc(CNc2nc(CN3CCOCC3)nc3scc(-c4ccccc4)c23)cc1`, the pIC50 was 4.47 and the concentration for an effect of 90% (IC90) is 42.1 µM.

Regarding `COc1cc(C2c3cc4c(cc3C(OC3OC5COC(c6cccs6)OC5C(O)C3O)C3COC(=O)C23)OCO4)cc(OC)c1O` (centres undefined), the negative-log IC50 (pIC50) is 4.56 and the IC90 was 35.4 µM.

For the compound `Cc1cc(C)c(CSc2ncc(-c3ccc([N+](=O)[O-])cc3)[nH]2)c(C)c1`, the pIC50 was 4.43 and the IC90 stood at 53.4 µM.

In the case of `Cc1ccccc1NC1=C/C(=N\S(=O)(=O)c2cccs2)c2ccccc2C1=O`, the pIC50 was 4.95 and the IC90 worked out at 12.3 µM.

With `CCOc1cc(/C=C2\COc3ccccc3C2=O)cc(Br)c1OCC(=O)N(C)C`, the pIC50 was 5.17 and the IC90 worked out at 11.5 µM.

Consider `C=C1C(=O)O[C@@H]2C[C@@H](C)[C@@H]3C4OC4C(=O)[C@@]3(C)[C@@H](O)[C@H]12` (some centres undefined), for which the pIC50 was 4.98 and the IC90 stood at 13 µM.

On to `CCOc1ccc(/C=N/OCC(=O)Nc2cc(C)on2)cc1`, for which the pIC50 is 4.05 and the IC90 is greater than 100 µM.

Turning to `CCC(=O)Nc1nc2ccccc2n1Cc1ccc(Cl)cc1`, the pIC50 was greater than 6.70 and the IC90 is 4.27 µM.

Turning to `Cc1ccsc1/C=C1\SC(N2CCOCC2)=NC1=O`, the pIC50 is 4.63 and the concentration for an effect of 90% (IC90) worked out at 27 µM.

With `Cn1c(SCc2ccccc2)nc(N)c(N=O)c1=O`, the pIC50 was 4.73 and the IC90 worked out at 25.6 µM.

For `Cc1ccc(-c2noc(C3CCCN(C(=O)c4ccc(C(C)(C)C)cc4)C3)n2)o1` (centres undefined), the pIC50 is 4.27 and the IC90 came to 82.6 µM.

As to `CS(=O)(=O)c1nc(-c2ccccc2)cc(C(F)(F)F)n1`, the pIC50 was 4.74 and the IC90 was determined as 27.6 µM.

In the case of `CCCCCCCCCCOC(=O)Cn1c(COc2ccc(Cl)cc2)[n+](C)c2ccccc21`, the pIC50 was 4.80 and the IC90 was determined as 17.5 µM.

Turning to `COc1ccc(C2=CC(c3c(C)nn(-c4ccccc4)c3Cl)n3nnnc3N2)cc1OC` (centres undefined), the pIC50 is 4.03 and the IC90 was greater than 100 µM.

With `O=c1oc2ccccc2c(Nc2ccccc2O)c1[N+](=O)[O-]`, the pIC50 is 5.02 and the 90% effect concentration (IC90) came to 13.9 µM.

For `CCOc1ccc(/C=N/Nc2ccc(Cl)nn2)c(O)c1`, the pIC50 is 5.23 and the IC90 worked out at 6.71 µM.

Consider `O=C(OCC(=O)N1CCCc2ccccc21)c1ccc(S(=O)(=O)C(F)F)cc1`, for which the pIC50 is 4.42 and the IC90 was 49.2 µM.

Consider `COc1ccc(/C=N/Nc2cc(C)nc3ccc(OC)cc23)c(OC)c1`, for which the pIC50 was 4.79 and the IC90 is 19.7 µM.

Regarding `Cc1ccc2c(c1)C1C[N+](C)(CC(=O)c3ccc(Cl)cc3Cl)CCC1N2C(=O)c1ccc(F)cc1` (centres undefined), the pIC50 is 4.49 and the IC90 was found to be 41 µM.

Consider `O=[N+]([O-])c1ccc(C2Oc3ccccc3C3CC(c4ccccc4)=NN32)s1` (centres undefined), for which the pIC50 was 5.15 and the IC90 is 9.52 µM.

For the compound `O=C(CCl)Nc1cn(-c2ccccc2)nc1-c1ccccc1`, the negative-log IC50 (pIC50) was 6.30 and the IC90 is 1.23 µM.

For the compound `Cn1cnnc1SCc1ccc(C(=O)N=Nc2c(O)n(Cc3ccc(Cl)cc3)c3ccccc23)cc1`, the pIC50 is 5.52 and the IC90 was 3.38 µM.

On to `O=C(Nc1cc(C(F)(F)F)ccc1-n1cncn1)c1ccc([N+](=O)[O-])o1`, for which the pIC50 is 4.43 and the IC90 was found to be 54.2 µM.

As to `O=C(Nc1ccc(Cl)cc1)N(C1=NCCC1)c1ccc(OC(F)F)cc1`, the negative logarithm of the IC50 (pIC50) was 4.19 and the IC90 was greater than 100 µM.

In the case of `CC(C)(C)c1ccc(OCCC(=O)OCC(=O)NC(=O)NC2CCCC2)cc1`, the negative-log IC50 (pIC50) is 4.93 and the IC90 came to 18.9 µM.

On to `CN(C)CCNc1ncnc2c1sc1nc(-c3ccccc3)c3c(c12)CCCC3`, for which the pIC50 was 4.65 and the IC90 was determined as 24.2 µM.

Regarding `O=C(c1cc2nc(-c3ccc(F)cc3)cc(C(F)(F)F)n2n1)N1CCCCC1c1cccnc1` (centres undefined), the negative logarithm of the IC50 (pIC50) was 4.68 and the IC90 was found to be 29.2 µM.

Regarding `COc1ccc(Cl)cc1C(=O)O/N=C(\N)c1ccccn1`, the pIC50 was 4.12 and the IC90 was greater than 100 µM.

With `CC[C@@H](C)[C@H](CN[C@H](CNC)C(C)C)NC[C@@H](C)c1ccc(CC(C)C)cc1`, the pIC50 is 4.88 and the IC90 came out at 15.4 µM.

On to `CC(C)c1ccc2c(c1)CCC1C(C)(CN)CCCC21C` (centres undefined), for which the pIC50 is 4.75 and the IC90 was determined as 26.7 µM.

With `Cc1ccc(/C=C(\NC(=O)c2ccc(C)cc2)c2nc(=S)[nH][nH]2)cc1`, the pIC50 is 4.34 and the IC90 was found to be 49.5 µM.

Take `S=C(Nc1ccc(Nc2ccccc2)cc1)Nc1ccccn1`: the pIC50 was 4.31 and the IC90 is greater than 50 µM.

Regarding `CCCC(NCC(O)COc1ccc(-c2ccccc2)cc1)c1ccccc1` (centres undefined), the pIC50 is 4.89 and the IC90 was determined as 14.7 µM.

As to `CCN(Cc1ccccc1)c1ccc(/C=N/N=C(N)N)cc1`, the pIC50 is 4.73 and the IC90 came to 28.1 µM.

Take `CCN1CSC(=S)N(Cc2ccccc2)C1`: the pIC50 is 4.49 and the IC90 came to 60.7 µM.

For `S=c1nc2ccccc2c2nc(-c3ccccc3)[nH]n12`, the pIC50 was 4.75 and the IC90 turned out to be 24.5 µM.

With `Cc1cc(N/N=C2/CCCc3ccccc32)nc2ccccc12`, the pIC50 is 4.38 and the IC90 amounted to 45.6 µM.

As for `COc1ccc(-c2cc3c(=O)n(CC(=O)NCCCN4CCC(Cc5ccccc5)CC4)ncn3n2)cc1`, the pIC50 was 4.55 and the IC90 worked out at 39.7 µM.

With `C/C(=N/NC(=O)c1ccccn1)c1c[nH]c2ccccc12`, the pIC50 is 4.97 and the IC90 was 21.4 µM.

For `O=C(CSc1cccc[n+]1[O-])c1cccs1`, the pIC50 is 4.46 and the IC90 worked out at 42.2 µM.

With `CCN(CC)S(=O)(=O)c1ccc(/C=C/C(=O)OCC#N)cc1`, the pIC50 is 4.63 and the 90% effect concentration (IC90) is 47.2 µM.

With `O=C1C(SCCO)=C(SCCO)C(=O)c2ccccc21`, the pIC50 was 4.95 and the IC90 is 12 µM.

For `CC(CC(=O)Nc1ccc(Cl)c([N+](=O)[O-])c1)c1ccccc1` (centres undefined), the pIC50 is 4.74 and the IC90 was 29.4 µM.

With `COc1ccc(Cc2nnc(SCC(=O)N(c3ccccc3)C(C)C)n(N)c2=O)cc1`, the pIC50 is 4.17 and the IC90 came to 97.5 µM.

Consider `C=CCN(C(=O)CSc1nc2c(sc3ccccc32)c(=O)n1CCN(CC)CC)c1ccccc1`, for which the pIC50 is 4.51 and the IC90 came to 38.8 µM.

Take `O=C(N[C@H]1CCC(=O)N(CCSc2ccc(Br)cc2)CC1)OCc1ccccc1`: the negative-log IC50 (pIC50) was 4.48 and the IC90 was found to be 46.6 µM.

As to `CCN1/C(=C/c2ccc3cc(C)ccc3[n+]2CC)Sc2ccccc21`, the pIC50 was 5.56 and the IC90 amounted to 3.07 µM.

On to `COc1cccc(C2C3=C(N=c4s/c(=C\c5cccc(O)c5)c(=O)n42)c2ccccc2CC3)c1OC` (centres undefined), for which the negative-log IC50 (pIC50) was 4.64 and the concentration for an effect of 90% (IC90) worked out at 25.6 µM.

As to `CCc1ccc(Nc2n[n+](C)c(-c3ccncc3)s2)cc1`, the negative-log IC50 (pIC50) was 4.38 and the 90% effect concentration (IC90) is 47.6 µM.

As for `C=C(C)CSc1cc(C)c(C#N)c2nc3ccccc3n12`, the pIC50 was 4.50 and the IC90 turned out to be 52.3 µM.

Take `NC(=O)CSc1nnc(COc2ccc3ccccc3c2)o1`: the pIC50 was 4.68 and the IC90 is 27.3 µM.

`C=CCc1c(C)nc(SC)nc1Nc1ccc(C(C)=O)cc1`: the pIC50 is 4.46 and the IC90 worked out at 52.4 µM.

`CN(C)CCCN(C(=O)c1ccc([N+](=O)[O-])s1)c1nc2cc3c(cc2s1)OCCO3`: the pIC50 is 4.45 and the IC90 was determined as 62.2 µM.

On to `O=C(c1cccc(-c2ccco2)c1)N1CCCC(N2CCN(c3ccc(F)cc3)CC2)C1` (centres undefined), for which the pIC50 is 4.13 and the IC90 came out at 95 µM.

For the compound `COc1ccccc1C1c2ccc3ccccc3c2Oc2ncn(CCN(C)C)c(=N)c21` (centres undefined), the pIC50 was 4.60 and the IC90 amounted to 28.9 µM.

On to `Cn1cnc([N+](=O)[O-])c1Sc1ccc(Br)cc1`, for which the pIC50 is 4.71 and the IC90 came out at 26.1 µM.

Turning to `Nc1ccc(C(=O)OCCCc2nc3cc4ccccc4cc3[nH]2)cc1`, the negative-log IC50 (pIC50) was 4.43 and the IC90 stood at 59.3 µM.

As to `O=C1CN(CC(=O)N2CCCCC2)c2ccccc2O1`, the pIC50 is 4.61 and the IC90 turned out to be 27.1 µM.

For the compound `CC1CCN(C(=O)c2ccc(-c3ccccc3Cl)o2)CC1`, the negative-log IC50 (pIC50) was 4.39 and the IC90 was 60.1 µM.

For the compound `Cc1cc(/C=N\NC(=O)c2cccs2)c(C)n1-c1ccc2ncccc2c1`, the pIC50 was 4.43 and the IC90 was 60.2 µM.

As to `COc1cc(C(=O)/C=C/c2cccnc2)c([N+](=O)[O-])cc1OC`, the pIC50 was 4.76 and the IC90 stood at 26.2 µM.

Regarding `COc1cc(NC(=O)c2cnc(N)s2)cc(C(=O)Nc2cccc(C(F)(F)F)c2)c1`, the pIC50 was 4.07 and the IC90 is greater than 100 µM.

As for `Cc1oc2c(c1C(=O)NCc1cccnc1)C(=O)c1ccccc1C2=O`, the pIC50 is 4.91 and the IC90 was 14.2 µM.
